This is an account of results in patent publication US20210205264A1, “USE OF DELTA-TOCOTRIENOL FOR TREATING CANCER” (H. LEE MOFFITT CANCER CENTER & RESEARCH INSTITUTE INC., priority 2018, published 2021).

A word on the AUC: it is concentration integrated over time. Higher therefore signals high exposure. Broadly, the Cmax is the peak of the concentration-time curve. For orientation: IC50 means the midpoint of a concentration-inhibition curve.

Details of data set [1]: species or system humans. The note with it: in vivo. On the procedure:
Two phase I dose-escalation studies were performed determining safety, pharmacokinetics, and pharmacodynamics after twice daily oral administration of d-T3 for 14 consecutive days before surgery in patients with resectable pancreatic exocrine neoplasia and in healthy individuals. […] Based on experience from clinical trials and in animal studies, a dose of 400 mg twice daily was selected for the trial. It should be noted that d-T3 concentration is several times higher in fatty tissues such as the pancreas and colon.

Data set [2] has as its system colon cancer stem cells (CCSC). Put plainly: d-T3 IC50 in colon cancer stem cells. Type of data set: cell-based, human. The note with it: 5 days treatment, daily fresh media change.
The test system of a further data set is CCSCs. Put plainly: Annexin V FITC/PI flow cytometry apoptosis assay in CCSCs. The note with it: 24 hours; d-T3 50 μM, aspirin 5 mM. It counts as cell-based, human. The protocol: FIGS. 10A, 10B, 10C, and 10D show induction of apoptosis measured by flow cytometry (FIG. 10A) and confocal microscopy (FIG. 10B) in CCSCs after treatment with vehicle, aspirin, d-T3, and aspirin+d-T3. Effect of BID inhibitor on apoptosis in CCSCs after treatment with aspirin or d-T3 (FIG. 10C). Induction oft-BID in CCSCs after treatment with vehicle, aspirin, d-T3, and aspirin+d-T3 (FIG. 10D).
d-T3 can induce selective killing of CCSCs through the BH3 interacting-domain death agonist (BID). […] It should be noted that these in vitro results are consistent with the in vivo observation of the selective induction of apoptosis in APC mutant colon crypt cells in the ApcMin/+ mice but not in the normal intestinal cells of the AOM rat CRC model or NOD/SCID mice. […] Although the proapoptotic activity of d-T3 is a consistent observation of d-T3 anticancer activity in all of the published reports, the mechanism by which d-T3 induces apoptosis is poorly understood. Apoptotic death is regulated by the death receptor (extrinsic) and mitochondrial (intrinsic) pathways. These 2 pathways crosstalk under certain conditions through caspase-8-mediated cleavage of BID, a BH3-only Bcl-2 family member. The activated and truncated BID (tBID) then engages the intrinsic pathway for efficient apoptosis induction. To obtain preliminary information regarding the mechanisms by which d-T3 induces apoptosis in CCSCs, the activation of BID was measured after 24-hour treatment with vehicle, aspirin (5 mM), d-T3 (50 μM), and aspirin combined with d-T3 in CCSCs by Western blotting.

A further data set has as its system β-catenin. Put plainly: β-catenin immunofluorescence and Western blot in CCSCs. Type of data set: cell-based, human. The source says: FIGS. 9A, 9B, 9C, and 9D show quantification of β-catenin in the nucleus and cytoplasm of CCSCs with confocal microscopy (FIGS. 9A & 9B) after treatment with vehicle, aspirin, d-T3, and aspirin+d-T3.
As noted above, stability of the β-catenin complex by inactivation of APC leads to stabilization and nuclear translocation of β-catenin and to transcriptional activation of β-catenin target genes such as c-Myc and cyclin D1. […] Furthermore, d-T3 inhibition of CCSCs is associated with the downregulation of β-catenin, c-Myc, cyclin D1, and survivin as measured by Western blot in CCSCs (FIG. 9D).
For orientation: Immunoblotting shows a protein as a band on a membrane.

Another data set concerns HCT-116. Put plainly: Apoptosis induction in HCT-116. It counts as cell-based, human.
For data set [3], the system named is intestinal stem cells of ApcMin/+ mice. Put plainly: Caspase 3 staining of intestinal crypts in ApcMin/+ mice. It counts as in vivo. The note with it: small intestinal crypts of ApcMin/+ mice. The source says:
Although substantial preclinical evidence exists regarding the preventive activity of d-T3 and g-T3 in various types of cancers, there is no report of d-T3 prevention of colon cancer despite evidence of activity in colon cell lines and xenograft models. […] Treatment with aspirin alone reduced adenoma formation by 38%, and treatment with d-T3 alone reduced adenoma formation by 44%, while treatment with the combination of aspirin and d-T3 reduced adenoma formation by 58%.

The subject of data set [4] is AOM induced rat colon cancer model. Put plainly: AOM induced rat colon cancer model. It counts as in vivo, Fisher 344 rat. The source says: FIGS. 3A, 3B, 3C and 3D show the number of polyps (FIG. 3A) and cancer (FIG. 3C) with H&E stain of representative areas of polyp (FIG. 3B) and cancer (FIG. 3D) following no treatment (NT), treatment with vehicle (V), sulindac, and d-T3 in AOM-induced Fisher 344 rat model of colon carcinogenesis.
To confirm the CRC prevention activity of d-T3, the activity of d-T3 was investigated and compared this with sulindac, another established NSAID with chemoprevention activity against CRC in the AOM induced rat colon cancer model.

Structures are written as SMILES.

As to `CC(C)=CCC/C(C)=C/CC/C(C)=C/CC[C@]1(C)CCc2cc(O)cc(C)c2O1` [d-T3, δ-tocotrienol], in data set [1] (human, po), the AUC is no more than 175 µM·h, the Cmax was no more than 17 µM and the half-life result was “approximately 4 hours”. Also, the dose-limiting toxicities result in data set [1] is given as “no dose-limiting toxicities”. In data set [2], 5 µM corresponded to half-maximal inhibition (IC50). Moreover, in the data set on CCSCs, the induction of apoptosis result is on record as “much more effective than aspirin”. Besides, the “β-catenin, c-Myc, cyclin D1, and survivin by Western blot” value in the data set on β-catenin is given as “downregulation”. For the same compound, the “amount of β-catenin translocated to the nucleus” value in the data set on β-catenin (immunofluorescence staining) is listed as “significantly decreased”. In the data set with HCT-116, the apoptosis entry is on record as “significantly induced apoptosis”. Further, the “apoptosis detected by caspase 3 staining” value in data set [3] was “markedly induced apoptosis”. Also, in data set [4], the cancer formation result is reported as “almost completely blocked” and the “formation of intestinal polyps” value is recorded as “significantly inhibited”.
